Test results: article PMC10730845, “Endoxifen downregulates AKT phosphorylation through protein kinase C beta 1 inhibition in ERα+ breast cancer” (NPJ Breast Cancer, 2023)

Legend:
MDAMB231 cells = assay: IncuCyte Annexin V apoptosis assay, MDAMB231; format: cell-based, human; conditions: CSS medium, 48 h, 0–10 µM tested; no apoptosis below the highest concentration
Description: Supplementary Figure 8. ENDX neither induces apoptosis nor inhibit growth of ER - breast cancer cells. a, MDAMB231 cells grown in CSS medium were co -treated with vehicle control or the indicated ENDX concentrations, IncuCyte Annexin V green and NucLight red reagents in CSS medium for 48 hours. The apoptosis graphs are presented as the green object count […]
software. Cells were plated at a density of 2000 cells per well. Data represents the mean of six

PKC mu (PKCm/PRKD1) = PKC mu (PKCm/PRKD1) (Homo sapiens, UniProt Q15139); assay: In vitro kinase assay, PKC mu; format: biochemical; conditions: 10 μM ATP
PKC mu (PKCm/PRKD1), sequence (Q15139 whole entry): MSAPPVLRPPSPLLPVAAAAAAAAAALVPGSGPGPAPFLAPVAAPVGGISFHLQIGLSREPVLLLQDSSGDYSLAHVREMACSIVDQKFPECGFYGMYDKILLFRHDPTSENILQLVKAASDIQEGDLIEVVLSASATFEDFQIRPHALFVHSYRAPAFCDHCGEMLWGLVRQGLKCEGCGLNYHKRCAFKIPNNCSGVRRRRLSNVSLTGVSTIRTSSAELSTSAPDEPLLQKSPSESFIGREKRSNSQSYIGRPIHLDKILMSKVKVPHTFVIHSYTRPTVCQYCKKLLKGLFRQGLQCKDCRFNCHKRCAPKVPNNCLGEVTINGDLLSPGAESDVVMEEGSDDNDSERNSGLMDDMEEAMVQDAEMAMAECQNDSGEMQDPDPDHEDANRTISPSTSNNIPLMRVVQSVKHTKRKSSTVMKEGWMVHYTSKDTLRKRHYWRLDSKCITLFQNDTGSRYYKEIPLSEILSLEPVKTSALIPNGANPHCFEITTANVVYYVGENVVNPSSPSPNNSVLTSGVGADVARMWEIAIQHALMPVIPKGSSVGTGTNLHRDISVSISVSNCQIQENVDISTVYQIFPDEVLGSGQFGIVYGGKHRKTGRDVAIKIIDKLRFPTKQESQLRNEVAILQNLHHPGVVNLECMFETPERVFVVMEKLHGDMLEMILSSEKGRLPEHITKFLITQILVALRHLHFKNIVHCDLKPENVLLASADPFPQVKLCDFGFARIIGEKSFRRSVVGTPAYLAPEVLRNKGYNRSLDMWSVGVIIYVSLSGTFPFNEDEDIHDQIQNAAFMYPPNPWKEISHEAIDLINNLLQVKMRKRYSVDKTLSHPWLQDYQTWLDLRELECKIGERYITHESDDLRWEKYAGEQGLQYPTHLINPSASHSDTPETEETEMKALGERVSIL
Description: (§1) Supplementary Table 4. In vitro kinase assay showing the IC 50 concentration of ENDX and
(§2) of the 12 PKC family members.
(§3) (1 picture or pasted object on this page, not shown here)

PKC iota (PKCi) = PKC iota (PKCi) (Homo sapiens, UniProt P41743); assay: In vitro kinase assay, PKC iota; format: biochemical; conditions: 10 μM ATP
PKC iota (PKCi), sequence (P41743 whole entry): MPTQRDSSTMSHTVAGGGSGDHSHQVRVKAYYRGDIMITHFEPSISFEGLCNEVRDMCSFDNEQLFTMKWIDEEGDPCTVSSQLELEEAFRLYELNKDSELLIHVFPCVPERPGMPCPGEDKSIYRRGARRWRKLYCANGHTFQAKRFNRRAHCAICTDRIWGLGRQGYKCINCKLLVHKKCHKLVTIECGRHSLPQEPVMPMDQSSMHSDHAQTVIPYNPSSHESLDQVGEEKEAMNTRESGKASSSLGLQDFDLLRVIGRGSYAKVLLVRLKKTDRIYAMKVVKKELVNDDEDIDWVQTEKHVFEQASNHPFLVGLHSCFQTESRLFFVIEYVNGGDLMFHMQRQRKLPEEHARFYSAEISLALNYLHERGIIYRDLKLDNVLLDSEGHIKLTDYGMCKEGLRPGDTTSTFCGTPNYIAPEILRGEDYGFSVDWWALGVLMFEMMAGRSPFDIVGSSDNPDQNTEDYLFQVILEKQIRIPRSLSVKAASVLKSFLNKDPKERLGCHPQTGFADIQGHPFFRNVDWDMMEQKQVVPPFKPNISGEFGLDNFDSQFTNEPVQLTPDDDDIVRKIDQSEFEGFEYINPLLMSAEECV
Description: as §1, §2, §3

[1] = test system: AKT^Ser473 phosphorylation in T47D-LTED cells; assay: Immunoblot of pAKT^Ser473, T47D-LTED; format: cell-based, human; conditions: CSS medium, 24 h; 5 µM
Description: Protein lysates were prepared using the RIPA lysis buffer system (ChemCruz #sc-24948) and quantified using the DC^TM Protein Assay reagents (Bio-Rad #5000112). Equal amounts of protein lysates were separated on 10% Criterion gels (Bio-Rad #3450112), transferred to PVDF membranes (Bio-Rad #1620177), blocked in TBST-5% milk and probed with primary antibodies listed in Supplementary Table 5, at the indicated dilutions. Membranes were incubated with HRP-conjugated anti-rabbit (CST #7074) or anti-mouse (CST #7076) secondary antibodies and visualized using chemiluminescent West Pico (Thermo Scientific #34580) or West Femto (Thermo Scientific #34096) reagents and a Li-Cor Odyssey® XF imager. Protein lysates from the MCF7AC1 xenograft model were obtained from a previous study. Quantitation of the protein bands signal intensity was performed using the NIH ImageJ image analysis software (https://imagej.nih.gov/ij///index.html). For the quantitation of the phospho protein levels, we first normalized total protein levels to β-actin loading control and used these values to normalize the phospho protein levels and compared change in protein expression levels relative to vehicle control normalized to 1.0. For the quantitation of total protein levels, we normalized the total protein levels to β-actin and compared change in expression levels relative to vehicle control normalized to 1.0. […]

MCF7AC1^caAKT cells = assay: IncuCyte Annexin V apoptosis assay, MCF7AC1^caAKT; format: cell-based, human; conditions: CSS medium, 5 µM, 48 h
Description: MCF7AC1 and T47D-LTED cells were plated at a density of 2000 cells per well in CSS medium for 24 h. Cells were then co-treated for 48 h with vehicle or drug, IncuCyte Annexin V green reagent (#4642, 1:300), an early-stage apoptosis marker, and IncuCyte NucLight rapid red reagent (#4717, 1:500), a dye that stains all cell nuclei red, in CSS medium. MCF7AC1^caAKT cells were plated at a cell density of 2000 cells per well in CSS medium in the absence or presence of cumate for 48 h and then co-treated with vehicle or drug, Annexin V green and NucLight rapid red reagents in the absence or presence of cumate for an additional 48 h in CSS medium.
Molecular cloning was performed for the generation of catalytically active AKT-expressing MCF7AC1 cells. For this purpose, vector pCDNA3.1+ containing an N-terminal SRCMyr signal AKT ORF and C-terminal hemagglutinin (HA)-tag was provided as a kind gift from Dr. Haojie Huang, Ph.D, Mayo Clinic, Rochester, MN. The constitutively active AKT (caAKT)-HA insert was excised using NheI/EcoRV restriction digest, gel purified and cloned into the NheI//PmeI site of an SBI (System biosciences, Palo Alto, CA) vector with modified restriction sites. Sanger sequencing was performed by Azenta/Genewiz, (South Plainfield, NJ) to confirm in frame sequence. […]

CC/C(=C(\c1ccc(O)cc1)c1ccc(OCCNC)cc1)c1ccccc1 [ENDX, Z-endoxifen]
Concentration at which apoptosis was induced (MDAMB231 cells): 10 µM | IC50 (PKC mu (PKCm/PRKD1)): 31.6 µM | IC50 (PKC iota (PKCi)): > 50 µM | Effect on AKT^Ser473 phosphorylation [1]: attenuated AKT^Ser473 phosphorylation | Effect on apoptosis (MCF7AC1^caAKT cells; absence of cumate): induced apoptosis | Effect of caAKT expression on ENDX-induced apoptosis (MCF7AC1^caAKT cells; presence of cumate): significantly diminished the ability of ENDX to induce apoptosis
